Columns and labels:
uterine fibroids = experiment: Previous oral studies of CDB-4124 (menses, fibroid size, symptoms); type: in vivo, human
Procedure: (§1) In a previous oral study, doses of 1, 3, 6, 9 and 12 mg of CDB-4124 were administered for a period of 10 weeks. […] Cessation of menses directly correlates to efficacy of an oral dose in both uterine fibroids and endometriosis. […] Given the overall low exposure of the 12 mg dose, in those women that continued to menstruate, further improvements in reduction of symptoms are expected with longer exposure to the drug. In efficacy studies in which CDB-4124 was administered orally, women experienced a nearly 50% reduction in mean fibroid size at a 25 mg dose. When those women were then escalated to a 50 mg oral dose for an additional four months, fibroid size was reduced to approximately 25% of the initial volume. […] It is expected that vaginal delivery of CDB-4124 at the 12 mg dose will have greater activity than the oral 50 mg dose despite a maximum exposure 1/100th of the 50 mg oral dose. Even with this low exposure after only 4 weeks of treatment, significant improvements in fibroid related condition have been observed.

[1] = Pharmacokinetics of vaginal pullulan capsules with 12 mg CDB-4124 in women with uterine fibroids, compared with oral doses; type: in vivo, human
Procedure: (§2) Capsugel NPcaps® were filled with the excipient fill formulations described above with 12 mg CDB-4124 (telapristone acetate) and administered vaginally to human females with uterine fibroids once per day for a period of 2 weeks to determine the length of time required to reach steady state and overall systemic exposure of the parent compound (CDB-4124) and the primary metabolite (CDB-4453). The capsules were administered using a commercially available vaginal applicator modified by reversing the insert (see FIG. 5). The unmodified applicator comprises a barrel and plunger with the barrel having a relatively wide opening on one end and a relatively narrow opening on the other end. The applicator is designed such that the drug is placed in the end with the larger diameter opening (entrance end), the applicator is inserted into the vagina and the plunger is used to push the drug out the barrel and into the vagina. For insertion of the filled NPcaps, the shell end of the capsule (having a […] diameter) was placed into the narrow opening in the barrel, leaving the cap exposed. […] Pharmacokinetic data was then obtained from patients.

[2] = tested on: human females with uterine fibroids; experiment: Efficacy of vaginal 12 mg CDB-4124 in women with uterine fibroids (menses, PBAC, UFSQOL); type: in vivo
Procedure: as §2
as §1, with “Even with this low exposure after only 4 weeks of treatment, significant improvements in fibroid related condition have been observed.” left out

vaginal mucous membrane = experiment: Cumulative vaginal mucous membrane irritancy in rabbits; type: in vivo, New Zealand White rabbits; details: rabbit
Procedure: Pullulan capsules (Capsugel NPcaps®, size 0) comprising CDB-4124 were administered once daily for 10 consecutive days intravaginally to 10 healthy virgin female New Zealand White rabbits in order to determine the cumulative vaginal mucous membrane irritancy potential and to obtain plasma samples for pharmacokinetic analysis. Five rabbits were assigned to each of two groups, the first dosed with vehicle control (pullulan capsules with 0.5 ml PEG 1000 fill) introduced into the upper vaginal vault of each rabbit using a syringe applicator (Group 1), the second with CDB-4124 (pullulan capsules with 12 mg CDB-4124 in 0.5 ml PEG 1000) (Group 2). The external vaginal mucosa of each animal was examined for erythema, edema and discharge prior to the initial dose, immediately prior to each treatment and prior to sacrifice. All animals were examined for gross pathology.

[3] = 12 mg vaginal, pair-wise comparison of 6 women
[4] = 12 mg CDB-4124 vaginally daily for 10 days

## COCC(=O)[C@@]1(OC(C)=O)CC[C@H]2[C@@H]3CCC4=CC(=O)CCC4=C3[C@@H](c3ccc(N(C)C)cc3)C[C@@]21C [CDB-4124, 21-methoxy-17α-acetoxy-11β-(4 N,N-dimethylaminophenyl)-19-norpregna-4,9-diene-3,20-dione]
Uterine fibroids; escalated to 50 mg oral for an additional four months
  fibroid size as % of the initial volume: approximately 25%
Uterine fibroids; oral 1 mg
  efficacy of 1 mg oral dose: ineffective
Uterine fibroids; oral 25 mg dose
  reduction in mean fibroid size: ~50%
Uterine fibroids; oral 1, 3, 6, 9 and 12 mg for 10 weeks
  tolerability: all doses were well tolerated
Uterine fibroids; oral CDB-4124
  fibroid symptoms scored by UFSQOL: in general, symptom free
Uterine fibroids; oral, 10 weeks
  lowest dose inducing reliable cessation of menses: 3 mg
[1]; 12 mg vaginal dose
  maximum exposure relative to the 50 mg oral dose: 1/100
[1]; 12 mg vaginal versus 1, 3, 6, 9, 12 mg oral, FIG. 2
  Cmax compared with oral doses: lower than any of the oral doses
[1]; women with uterine fibroids, 12 mg vaginal pullulan capsule once per day
  time to steady state concentration: within one week
[1]; women with uterine fibroids, 12 mg vaginal versus oral, FIG. 1
  systemic exposure (AUC) relative to an equivalent oral dose: about ⅙
[2]; 12 mg vaginal dose, 6 women compared
  cessation of menses (number of women): 3
[2]; [3]
  statistical significance (p) of reduction in menstrual bleeding, Pictorial Blood Loss Assessment Chart (PBAC): < 0.05
  statistical significance (p) of reduction in overall uterine fibroid symptoms, UFSQOL: < 0.05
Vaginal mucous membrane; [4]
  gross findings in ovaries, uterus, vagina: No gross findings
  histopathological findings: nor were any histopathological findings observed
Vaginal mucous membrane; 12 mg CDB-4124 vaginally daily for 10 days, 2/5 rabbits on 4 occasions, otherwise normal
  external vaginal mucosa (erythema, edema): very slight erythema and/or edema
Vaginal mucous membrane; pullulan capsules, 12 mg CDB-4124 in 0.5 ml PEG 1000, vaginally daily for 10 days
  irritation index: none

From patent US10064815B2, “Formulations and methods for vaginal delivery of antiprogestins” (REPROS THERAPEUTICS INC., priority 2014, dated 2018)
